Entries after “also recorded” stand apart in the source; their conditions may differ.
Experiments:
[1] = tested on: Type IV allergic dermatitis; assay: Type IV allergic dermatitis (picryl chloride) auricle swelling; format: in vivo, male ICR mice
Method: Male 6-week-old ICR mice (Clea Japan, Inc.) were divided into two groups of control group and administration group containing 8-9 mice each. A 0.5% methylcellulose solution (10 ml/kg) was forcefully administered orally to the control group and diethyl acetoacetylcromoglycate (100 mg/kg) was forcefully administered orally to the administration group twice a day for 14 days for each group. After the initial administration at day 8 of the administration, pentobarbital sodium (55 mg/kg) was intraperitoneally administered to each mouse and the abdomen was shaved. 5% Picryl chloride (50 μl) dissolved in acetone-olive oil (mixing ratio, 1:4) was applied to the shaved portion (diameter about 2 cm). After the initial administration at day 5 after the application (day 12 of administration), all mice were anesthetized with ether and the thickness of both auricles was measured with a dial thickness gauge (Mitutoyo Co.). […] After 48 hours from this antigen challenge, the thickness of both auricles was measured with a dial thickness gauge under ether anesthesia.
The difference between the thickness of the auricle applied with the solvent and the thickness of the auricle applied with the antigen was measured for each mouse.

[2] = tested on: collagen-induced arthritis in mice; assay: Collagen-induced arthritis in mice: arthritis score; format: in vivo, male DBA/1J mice; settings: for Arthritis score: mean ± standard error (n = 8-10)
Source text: (§1) According to the method of Courtenay et al. (Courtenay, J. S. et al.: Immunization against heterologous type II collagen induces arthritis in mice. Nature, 283:666, 1980), male DBA/1J mice (CHARLES RIVER JAPAN INC.) were sensitized with bovine type II collagen to induce collagen-induced arthritis (rheumatoid arthritis). After the onset of arthritis, diethyl acetoacetylcromoglycate was orally administered and its inhibitory effect was examined. The method is detailed in the following.
Male DBA/1J mice (8-week-old) were pre-bred for one week and divided into the following 3 groups based on body weight (8-10 per group).
Bovine type II collagen (2 mg) was dissolved in 0.01M acetic acid (1 ml) and suspended in an equivalent amount of Freund's complete adjuvant, and 0.1 ml thereof was intradermally injected to the control group and treated group at 9 weeks of age at the base of the tail, followed by the second injection three weeks later at 12 weeks of age.
Starting from day 31 after the initial injection of collagen till the end of the treatment, the mice of each group were scored (arthritis score) twice a week for the levels of redness, swelling and stiffness of four limbs by a blind test method. The scores were taken according to a method similar to the method of Bjork et al. (Bjork, J. and Kleinau, S.: Paradoxical effects of LS-2616 (Linomide) treatment in the type II collagen arthritis model in mice, Agents and Actions, 27:319-321, 1989.), wherein normal was rated 0 point, inflammation on one digit was 1 point, inflammation on two or more digits and normal metacarpal region and metatarsal region of the limbs, or inflammation on one digit and metacarpal region and metatarsal region of the limbs was 2 points, and inflammation on digits and metacarpal region and metatarsal region of the limbs was 3 points, each mouse scoring 0 to 12 points in total.
The treatment was continued for 6 weeks from day 41 from the initial injection of collagen. […]

Acute Toxicity Test = settings: mouse, in vivo; oral, suspension, male ICR mice
Source text: The cromoglycic acid compound prepared in the above Example 1 was orally administered to male ICR mice (3 per group) in the form of a suspension.

[3] = tested on: bone of feet and digits of the four limbs; assay: X-ray score of bone destruction in collagen-induced arthritis mice; format: in vivo, male DBA/1J mice; settings: 100 mg/kg/day orally
Source text: as §1
Male DBA/1J mice (8-week-old) were pre-bred for one week and divided into the following 3 groups based on body weight (8-10 per group). […]
In addition, the whole body w as X-ray photographed and destruction state of the bone of feet and digits of the four limbs was scored (X-ray score) by a blind test according to the criteria of Gliman et al. (Gliman S. C. et al.: Immunological abnormalities in rats with adjuvant-induced ar thritis, II. Effect of antiarthritic therapy on immune function in relation to disease development, Int. J. Immunopharmacol. , 9:9-16, 1987), wherein normal was rated 0 point, destruction in one joint was 1 point, destruction in two or more joints, though not all joints, was 2 points, and destruction in all joints was 3 points, each mouse scoring 0 to 12 points in total.

## CCOC(=O)c1cc(=O)c2c(OCC(COc3cccc4oc(C(=O)OCC)cc(=O)c34)OC(=O)CC(C)=O)cccc2o1 [Example 1, Diethyl Acetoacetylcromoglycate]
[1]; 100 mg/kg orally twice a day for 14 days, 48 hr after applying 0.5% picryl chloride solution, mean ± standard error (n = 8-9), control 0.045 ± 0.003, p < 0.01
  Increase in thickness of auricle after application of antigen: 0.031 ± 0.003 mm
[1]; 100 mg/kg orally twice a day, 48 hours after picryl chloride challenge, t-test with control group
  effect on swelling of the auricle (in words): significant inhibitory action on the swelling of the auricle
[2]; 100 mg/kg/day orally, day 38 after start of treatment, U-test with control group
  effect on arthritis score (in words): inhibition of the symptoms of collagen-induced arthritis (rheumatoid arthritis); also recorded: significant improvement in the arthritis scores
[2]; 100 mg/kg/day orally, day 79 after initial injection of collagen (day 38 after starting treatment), control 10.70 ± 0.49, p < 0.01
  Arthritis score: 6.36 ± 1.30
[2]; day 38 after initial injection of collagen (3 days before treatment)
  Arthritis score: 1.80 ± 0.61
Acute Toxicity Test
  LD50: > 1000 mg/kg
[3]; day 42 after starting treatment, U-test with control group
  effect on X-ray score / bone destruction (in words): signifiicant improvement in X-ray so re; also recorded: inhibition of bone destruction of feet and digits of the four limbs
[3]; day 83 after initial injection of collagen (day 42 after starting treatment), mean ± standard error (n = 8-10), control 10.20 ± 0.40, p < 0.01
  X-ray score: 5.80 ± 1.10
